Laboratory results reported in ChEMBL document CHEMBL4138184 (J Nat Prod, 2017).

Columns and labels:
MCF7 [1] = test: Antiproliferative activity against human MCF7 cells after 24 hrs by MTT assay; format: functional, cell-based; settings: MCF7, 24 h
[2] = Antiproliferative activity against mouse mammary carcinoma cell after 24 hrs by MTT assay; format: functional
BT-549 [3] = test: Antiproliferative activity against human BT549 cells after 24 hrs by MTT assay; format: functional, cell-based; settings: BT-549, 24 h
MCF7 [4] = test: Antiproliferative activity against human MCF7 cells at 1 nM to 100 uM after 24 hrs by MTT assay relative to control; format: functional; settings: at 0.001 to 100 µM
[5] = Antiproliferative activity against mouse mammary carcinoma cell at 1 nM to 100 uM after 24 hrs by MTT assay relative to control; format: functional; settings: at 0.001 to 100 µM
MDA-MB-231 [6] = test: Antiproliferative activity against human MDA-MB-231 cells at 1 nM to 100 uM after 24 hrs by MTT assay relative to control; format: functional; settings: at 0.001 to 100 µM
BT-549 [7] = test: Antiproliferative activity against human BT549 cells at 1 nM to 100 uM after 24 hrs by MTT assay relative to control; format: functional; settings: at 0.001 to 100 µM
[8] = molecular target: T1, Melatonin receptor type 1A (Homo sapiens, UniProt P48039)
T1 sequence (P48039 whole entry): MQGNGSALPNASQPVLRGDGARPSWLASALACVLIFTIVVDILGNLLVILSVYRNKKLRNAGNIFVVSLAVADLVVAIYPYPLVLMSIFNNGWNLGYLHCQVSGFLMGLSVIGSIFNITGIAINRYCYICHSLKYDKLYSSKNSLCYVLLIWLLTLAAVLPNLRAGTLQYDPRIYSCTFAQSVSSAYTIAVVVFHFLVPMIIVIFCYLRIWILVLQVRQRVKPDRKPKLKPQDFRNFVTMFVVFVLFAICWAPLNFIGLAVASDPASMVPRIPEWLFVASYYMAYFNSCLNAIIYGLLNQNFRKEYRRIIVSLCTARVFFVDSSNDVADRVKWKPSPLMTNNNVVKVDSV

MDA-MB-231 [9] = test: Antiproliferative activity against human MDA-MB-231 cells after 24 hrs by MTT assay; format: functional, cell-based; settings: MDA-MB-231, 24 h
MCF7 [10] = test: Inhibition of cell migration in human MCF7 cells at 100 uM after 24 hrs by inverted fluorescence microscopy based scratch assay relative to control; format: functional; settings: MCF7, 24 h
[11] = Inhibition of cell migration in mouse mammary carcinoma cell at 100 uM after 24 hrs by inverted fluorescence microscopy based scratch assay relative to control; format: functional
MDA-MB-231 [12] = test: Inhibition of cell migration in human MDA-MB-231 cells at 100 uM after 24 hrs by inverted fluorescence microscopy based scratch assay relative to control; format: functional; settings: MDA-MB-231, 24 h
BT-549 [13] = test: Inhibition of cell migration in human BT549 cells at 100 uM after 24 hrs by inverted fluorescence microscopy based scratch assay relative to control; format: functional; settings: BT-549, 24 h
[14] = molecular target: T1, Melatonin receptor type 1A; remark: listed apart in the source

Structure (SMILES) | IC50 (MCF7 [1]) [µM] | IC50 (BT-549 [3]) [µM] | Ki [8] [µM] | IC50 (MDA-MB-231 [9]) [µM] | KiH [14] [nM] | KiL [14] [nM] | IC50 [2] [µM] | Efficacy (MCF7 [4]) [%] | Efficacy [5] [%] | Efficacy (MDA-MB-231 [6]) [%] | Efficacy (BT-549 [7]) [%] | inhibition at 100 µM (MCF7 [10]) [%] | inhibition at 100 µM [11] [%] | inhibition at 100 µM (MDA-MB-231 [12]) [%] | inhibition at 100 µM (BT-549 [13]) [%]
CC(C)=CCC/C(C)=C/CC/C(C)=C/COc1ccc2ccc(=O)oc2c1 [UMBELLIPRENIN] | – | – | – | 30 | 1.6 | 3.3 | – | 81 | 61 | 60 | 85 | 9 | 7 | -52 | 23
CC(C)=CCOc1ccc2ccc(=O)oc2c1 [7-PRENYLOXYCOUMARIN] | – | 37 | 5.2 | – | – | – | – | 105 | 98 | 83 | 94 | – | – | – | –
COc1ccc2[nH]cc(CCNC(C)=O)c2c1 [MELATONIN] | – | 30000 | – | 0.9 | – | – | 0.2 | 87 | 91 | 92 | 91 | – | – | – | –
O=c1ccc2ccc(O)cc2o1 [UMBELLIFERONE] | 2.9 | 1000 | – | 3.7 | – | – | – | 124 | 93 | 88 | 91 | – | – | – | –
O=c1ccc2ccc(O/C=C/c3ccccc3)cc2o1 | 2.2 | 140 | 0.37 | 6.6 | – | – | – | 87 | 93 | 82 | 86 | – | – | – | –
CCC#CCOc1ccc2ccc(=O)oc2c1 [7-(2-PENTYNYLOXY)COUMARIN] | 50 | 74 | 0.888 | – | – | – | 24 | 89 | 101 | 87 | 86 | – | – | – | –

The next lines start with results.

IC50 (MCF7 [1]) [µM] | IC50 (BT-549 [3]) [µM] | Ki [8] [µM] | IC50 (MDA-MB-231 [9]) [µM] | KiH [14] [nM] | KiL [14] [nM] | Structure (SMILES) | IC50 [2] [µM] | Efficacy (MCF7 [4]) [%] | Efficacy [5] [%] | Efficacy (MDA-MB-231 [6]) [%] | Efficacy (BT-549 [7]) [%] | inhibition at 100 µM (MCF7 [10]) [%] | inhibition at 100 µM [11] [%] | inhibition at 100 µM (MDA-MB-231 [12]) [%] | inhibition at 100 µM (BT-549 [13]) [%]
0.7 | 15 | – | – | – | – | COc1cc(/C=C/C(=O)O)ccc1OCC=C(C)C [BOROPINIC ACID] | 6.1 | 102 | 98 | 89 | 97 | – | – | – | –
– | 24 | 1.9 | 80 | – | – | CC(C)=CCC/C(C)=C/COc1ccc2ccc(=O)oc2c1 | – | 90 | 57 | 67 | 86 | 3 | 5 | -36 | 7
– | 5.6 | 59 | 22 | – | – | COc1cc(/C=C/C(=O)O)ccc1OC/C=C(\C)CCC=C(C)C | 2.5 | 102 | 99 | 79 | 93 | – | – | – | –
– | 1.2 | – | 0.5 | – | – | COc1cc(/C=C/C(=O)O)ccc1O [FERULATE] | – | 96 | 100 | 92 | 99 | – | – | – | –
– | 0.045 | 0.786 | 63 | – | – | COc1cc(/C=C/C=O)ccc1OCC=C(C)C [BOROPINAL] | 0.22 | 94 | 96 | 79 | 83 | – | – | – | –
